This is an account of results in ChEMBL document CHEMBL2074224, “Characterization of multidrug resistance-associated protein 2 in the hepatocellular disposition of 4-hydroxynonenal” (Arch Biochem Biophys, 2003).

This series addresses ATP-binding cassette sub-family C member 2 (Rattus norvegicus, UniProt Q63120). Nature of the series: TP_TRANSPORTER: efflux in isolated rat hepatocytes (Wistar/TR-). The series is classed as functional, cell-based, Hepatocyte.

Chain of ATP-binding cassette sub-family C member 2 (Q63120 whole entry): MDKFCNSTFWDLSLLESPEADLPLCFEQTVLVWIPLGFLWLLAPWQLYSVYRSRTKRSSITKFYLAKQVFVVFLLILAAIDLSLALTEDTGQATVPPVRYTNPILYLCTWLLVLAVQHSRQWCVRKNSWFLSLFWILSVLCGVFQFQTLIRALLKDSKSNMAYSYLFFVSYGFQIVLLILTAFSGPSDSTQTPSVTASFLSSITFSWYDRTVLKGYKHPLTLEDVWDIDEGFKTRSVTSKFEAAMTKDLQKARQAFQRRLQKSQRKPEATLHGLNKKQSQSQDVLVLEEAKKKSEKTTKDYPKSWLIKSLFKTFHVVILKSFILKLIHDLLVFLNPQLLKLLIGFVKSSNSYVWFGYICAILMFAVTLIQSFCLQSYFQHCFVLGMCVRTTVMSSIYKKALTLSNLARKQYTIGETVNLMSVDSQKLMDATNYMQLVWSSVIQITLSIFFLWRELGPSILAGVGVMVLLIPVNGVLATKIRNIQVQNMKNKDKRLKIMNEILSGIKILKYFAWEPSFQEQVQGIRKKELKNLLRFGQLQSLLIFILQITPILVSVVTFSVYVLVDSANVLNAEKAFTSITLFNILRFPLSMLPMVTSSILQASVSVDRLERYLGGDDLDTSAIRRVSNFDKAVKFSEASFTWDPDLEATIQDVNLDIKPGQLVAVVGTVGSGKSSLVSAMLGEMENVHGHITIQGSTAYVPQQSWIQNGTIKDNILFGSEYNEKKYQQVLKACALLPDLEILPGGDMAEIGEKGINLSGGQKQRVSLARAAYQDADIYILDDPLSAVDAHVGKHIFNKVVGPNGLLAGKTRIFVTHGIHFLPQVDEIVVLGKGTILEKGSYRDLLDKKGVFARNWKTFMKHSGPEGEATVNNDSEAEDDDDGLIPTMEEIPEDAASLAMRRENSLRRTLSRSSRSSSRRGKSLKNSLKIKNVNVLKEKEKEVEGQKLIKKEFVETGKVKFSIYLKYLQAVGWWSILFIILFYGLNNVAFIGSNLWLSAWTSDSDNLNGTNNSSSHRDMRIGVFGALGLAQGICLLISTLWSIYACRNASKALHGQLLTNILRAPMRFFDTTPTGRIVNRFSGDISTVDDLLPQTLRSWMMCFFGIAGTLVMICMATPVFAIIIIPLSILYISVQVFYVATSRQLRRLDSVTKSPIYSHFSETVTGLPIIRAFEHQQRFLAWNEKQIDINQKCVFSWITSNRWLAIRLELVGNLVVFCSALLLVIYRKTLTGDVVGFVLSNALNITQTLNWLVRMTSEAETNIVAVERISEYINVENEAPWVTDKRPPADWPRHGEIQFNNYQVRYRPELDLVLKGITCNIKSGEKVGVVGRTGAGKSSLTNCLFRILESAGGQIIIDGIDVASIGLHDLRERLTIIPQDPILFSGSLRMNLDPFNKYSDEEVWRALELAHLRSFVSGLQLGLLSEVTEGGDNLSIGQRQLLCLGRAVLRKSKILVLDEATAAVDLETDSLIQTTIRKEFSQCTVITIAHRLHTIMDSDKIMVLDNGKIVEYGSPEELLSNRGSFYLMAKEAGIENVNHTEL

Regarding `CCCCCC1OC(O)CC1SC[C@H](NC(=O)CC[C@H](N)C(=O)O)C(=O)NCC(=O)O` (stereo partly specified), the Activity result was “substrate []”.
